What all share (format): in vivo
Experiment [1] concerns wild oat (AVEFA, Avena fatua). Nature of the experiment: Test F mixtures with safener cloquintocet-mexyl, pre-/postemergence plant response. As to conditions: applied alone. An excerpt: This test evaluated the effect of mixtures of Compound 3, Compound 11, or Compound 12 with the commercial crop safener cloquintocet-mexyl on three plant species. Seeds of test plants consisting of winter wheat (TRZAW, Triticum aestivum), winter barley (HORVX, Hordeum vulgare), and wild oat (AVEFA, Avena fatua) (a weed) were planted into a blend of loam soil and sand and treated preemergence with a directed soil spray using test chemicals formulated in a non-phytotoxic solvent mixture that included a surfactant. At the same time, plants selected from these crop and weed species were treated with postemergence applications of the test chemicals formulated in the same manner. Plants ranged in height from 2 to 18 cm (1- to 4-leaf stage) for postemergence treatments.
Plants were grown in a greenhouse using supplemental lighting to maintain a photoperiod of about 16 hours; daytime and nighttime temperatures were about 24-30° C. and 19-21° C., respectively. Balanced fertilizer was applied through the watering system. Treatments consisted of Compound 3, Compound 11, or Compound 12 and the above mentioned safener alone and in combination using a spray volume of 457 L/ha. Each treatment was replicated three times. Treated plants and controls were maintained in a greenhouse for 14 to 21 days, after which time all treated plants were compared to controls and visually evaluated. Plant response ratings were calculated as the means of the three replicates and are summarized in Tables F1 to F6, and are based on a scale of 0 to 100 where 0 is no effect and 100 is complete control. Because cloquintocet-mexyl alone caused no injury at the rates tested, the expected effect of a mixture of Compound 3 with cloquintocet-mexyl is the same as the observed effect of Compound 3 applied alone.

Experiment [2] deals with Russian thistle (Salsola kali). Nature of the experiment: Test E pre-/postemergence plant response. As to conditions: 31 g ai/ha, Preemergence, scale 0 to 100. In short, it runs like this:
(§1)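 Steps: sow seeds; apply compound preemergence in a non-phytotoxic solvent/surfactant formulation; in parallel, spray the same formulation postemergence on 1- to 4-leaf plants (2–18 cm); hold 14–21 days in a greenhouse; rate visually vs controls, 0 = no effect, 100 = complete control.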

Experiment [3] relates to common sowthistle (Sonchus oleraceous). As to the kind of experiment: Test E pre-/postemergence plant response. As to conditions: Postemergence, scale 0 to 100. In short, it runs like this:
as §1

Experiment [4] has as its system prickly sida (Sida spinosa). Nature of the experiment: Test E pre-/postemergence plant response. The settings on record: scale 0 to 100. In short, it runs like this: as §1
A further experiment has as its system kochia (Kochia scoparia). Nature of the experiment: Test E pre-/postemergence plant response. The settings on record: scale 0 to 100. In short, it runs like this: as §1
For experiment [5], the system named is Virginia (V.) dayflower (Commelina virginica). As to the kind of experiment: Test E pre-/postemergence plant response. The settings on record: scale 0 to 100. A digest of the protocol: as §1
The next experiment deals with canola (Brassica rapa). Nature of the experiment: Test C pre-/postemergence plant response. A digest of the protocol:
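Both preemergence (to planted seed) and postemergence (to plants 2–18 cm high, 1- to 4-leaf) applications used test chemicals in a non-phytotoxic solvent mixture containing surfactant. Evaluation: visual comparison with controls after 15 to 25 days; 0 means no effect, 100 complete control.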

Experiment [6] concerns tropical (T.) spiderwort (Commelina benghalensis). Nature of the experiment: Test E pre-/postemergence plant response. As to conditions: scale 0 to 100. A digest of the protocol: as §1
Setting [7] is: Postemergence, 8 g ai/ha, scale 0 to 100, 0 no effect, 100 complete control.
Setting [8] is: Postemergence, 16 g ai/ha, scale 0 to 100, 0 no effect, 100 complete control.
Where [9] appears, read: Postemergence, 31 g ai/ha, scale 0 to 100, 0 no effect, 100 complete control.
[10] abbreviates: Postemergence, 62 g ai/ha, scale 0 to 100, 0 no effect, 100 complete control.
[11] abbreviates: Preemergence, 8 g ai/ha, scale 0 to 100 (0 no effect, 100 complete control).
The mark [12] stands for this setting: Preemergence, 16 g ai/ha, scale 0 to 100 (0 no effect, 100 complete control).
Where [13] appears, read: Preemergence, 31 g ai/ha, scale 0 to 100 (0 no effect, 100 complete control).
Where [14] appears, read: Preemergence, 62 g ai/ha, scale 0 to 100, 0 no effect, 100 complete control.

In the case of “4-[3-(4-chlorophenyl)-5-methyl-1H-pyrazol-3-yl]-5-hydroxy-2-methyl-3(2H)-pyridazinone [Compound 3]”, the “AVEFA Obsd. (observed effect) plant response rating, scale 0 to 100” value is listed as 27 in experiment [1] (postemergence, 4 g a.i./ha); 67 in experiment [1] (postemergence, 8 g a.i./ha); 83 in experiment [1] (postemergence, 16 g a.i./ha); 0 in experiment [1] (preemergence, 4 g a.i./ha); 35 in experiment [1] (preemergence, 8 g a.i./ha); 60 in experiment [1] (preemergence, 16 g a.i./ha).
On to `CCc1cc(-c2ccc(C(F)(F)F)cc2)nn1-c1c(OS(C)(=O)=O)cnn(C)c1=O` [Compound 19], for which the “Plant response rating, Thistle, Russian” value in experiment [2] is on record as 0. Besides, the “Plant response rating, Sowthistle” value in experiment [3] (4 g ai/ha), in experiment [3] (8 g ai/ha), in experiment [3] (16 g ai/ha) and in experiment [3] (31 g ai/ha) was 0 throughout. The “Plant response rating, Prickly Sida” value in experiment [4] (4 g ai/ha, Postemergence) was determined as 0; in experiment [4] (16 g ai/ha, Preemergence) it was 0; in experiment [4] (31 g ai/ha, Preemergence) it was 0; in experiment [4] (Postemergence, 8 g ai/ha) it was 0; in experiment [4] (Postemergence, 16 g ai/ha), 0; in experiment [4] (Postemergence, 31 g ai/ha) it was 0. Moreover, the “Plant response rating, Prickly Sida” value in experiment [4] (Preemergence, 4 g ai/ha) was 0. Moreover, the “Plant response rating, Kochia” value in the experiment with kochia (Kochia scoparia) (4 g ai/ha, Postemergence) came out at 0; with kochia (Kochia scoparia) (16 g ai/ha, Preemergence) it was 0; with kochia (Kochia scoparia) (31 g ai/ha, Preemergence), 0; with kochia (Kochia scoparia) (Postemergence, 16 g ai/ha), 0; with kochia (Kochia scoparia) (Preemergence, 4 g ai/ha) it was 0. Moreover, the “Plant response rating, Dayflower, V.” value in experiment [5] (4 g ai/ha, Postemergence) amounted to 0; in experiment [5] (8 g ai/ha, Preemergence), 0; in experiment [5] (16 g ai/ha, Preemergence) it was 0; in experiment [5] (Postemergence, 8 g ai/ha), 0; in experiment [5] (Postemergence, 16 g ai/ha) it was 0; in experiment [5] (Postemergence, 31 g ai/ha) it was 0. In experiment [5] (Preemergence, 4 g ai/ha), the “Plant response rating, Dayflower, V.” value is 0. The “Plant response rating, Canola” value in the experiment on canola (Brassica rapa) (setting [7]), in the experiment with canola (Brassica rapa) (setting [8]), in the experiment with canola (Brassica rapa) (setting [9]), in the experiment with canola (Brassica rapa) (setting [10]), in the experiment on canola (Brassica rapa) (setting [11]) and in the experiment with canola (Brassica rapa) (setting [12]) was 0 in each case. For the same compound, the “Plant response rating, Canola” value in the experiment with canola (Brassica rapa) (setting [13]) and in the experiment on canola (Brassica rapa) (setting [14]) was 0 each time.
`CCc1cc(-c2ccc(Cl)c(Cl)c2)nn1-c1c(O)cnn(C)c1=O` [Compound 20]: the “Plant response rating, Canola” value with canola (Brassica rapa) (setting [7]), with canola (Brassica rapa) (setting [8]), in the experiment on canola (Brassica rapa) (setting [9]) and in the experiment with canola (Brassica rapa) (setting [10]) was 0 in each case.
Take `CCc1cc(-c2ccc(F)cc2)nn1-c1c(O)cnn(C)c1=O` [Compound 25]: the “Plant response rating, Canola” value with canola (Brassica rapa) (setting [7]), in the experiment with canola (Brassica rapa) (setting [8]), with canola (Brassica rapa) (setting [9]), in the experiment on canola (Brassica rapa) (setting [10]), in the experiment with canola (Brassica rapa) (setting [11]) and in the experiment with canola (Brassica rapa) (setting [12]) was 0 each time. Also, the “Plant response rating, Canola” value in the experiment on canola (Brassica rapa) (setting [13]) and in the experiment on canola (Brassica rapa) (setting [14]) was 0 each time.
Turning to `Cn1ncc(O)c(-c2nn(-c3ccc(Cl)cc3)cc2Cl)c1=O` [Compound 28], the “Plant response rating, Canola” value in the experiment with canola (Brassica rapa) (setting [11]), in the experiment with canola (Brassica rapa) (setting [12]), in the experiment on canola (Brassica rapa) (setting [13]) and in the experiment on canola (Brassica rapa) (setting [14]) was 0 throughout.
`Cc1cn(-c2ccc(Cl)cc2)nc1-c1c(O)cnn(C)c1=O` [Compound 30, 4-[1-(4-chlorophenyl)-4-methyl-1H-pyrazol-3-yl]-5-hydroxy-2-methyl-3(2H)-pyridazinone]: the “Plant response rating, Canola” value in the experiment on canola (Brassica rapa) (setting [11]), in the experiment on canola (Brassica rapa) (setting [12]), in the experiment with canola (Brassica rapa) (setting [13]) and with canola (Brassica rapa) (setting [14]) was 0 each time.
On to `Cn1ncc(O)c(-c2nn(-c3ccc(Cl)cc3)cc2Br)c1=O` [Compound 31], for which the “Plant response rating, Spiderwort, T.” value in experiment [6] (16 g ai/ha, Preemergence) is recorded as 0; in experiment [6] (31 g ai/ha, Preemergence) it was 0; in experiment [6] (62 g ai/ha, Preemergence), 0; in experiment [6] (Postemergence, 8 g ai/ha), 0; in experiment [6] (Postemergence, 16 g ai/ha) it was 0; in experiment [6] (Postemergence, 31 g ai/ha), 0. In addition, the “Plant response rating, Spiderwort, T.” value in experiment [6] (Postemergence, 62 g ai/ha) turned out to be 0.
As to `COC(=O)Oc1cnn(C)c(=O)c1-n1nc(-c2ccc(Cl)cc2)cc1C` [Compound 33], the “Plant response rating, Spiderwort, T.” value in experiment [6] (16 g ai/ha, Preemergence) is recorded as 0; in experiment [6] (31 g ai/ha, Preemergence), 0; in experiment [6] (62 g ai/ha, Preemergence), 0; in experiment [6] (Postemergence, 8 g ai/ha) it was 0; in experiment [6] (Postemergence, 16 g ai/ha), 0; in experiment [6] (Postemergence, 62 g ai/ha) it was 0. For the same compound, the “Plant response rating, Canola” value in the experiment on canola (Brassica rapa) (setting [11]), with canola (Brassica rapa) (setting [12]), in the experiment on canola (Brassica rapa) (setting [13]) and in the experiment with canola (Brassica rapa) (setting [14]) was 0 throughout.
Turning to `Cc1cc(-c2ccc(Cl)cc2)nn1-c1c(OS(C)(=O)=O)cnn(C)c1=O` [Compound 36], the “Plant response rating, Spiderwort, T.” value in experiment [6] (16 g ai/ha, Preemergence) is recorded as 0; in experiment [6] (31 g ai/ha, Preemergence) it was 0; in experiment [6] (62 g ai/ha, Preemergence) it was 0; in experiment [6] (Postemergence, 8 g ai/ha) it was 0; in experiment [6] (Postemergence, 16 g ai/ha) it was 0; in experiment [6] (Postemergence, 31 g ai/ha), 0. In addition, the “Plant response rating, Spiderwort, T.” value in experiment [6] (Postemergence, 62 g ai/ha) was determined as 0.
In the case of `CCc1cc(-c2ccc(Cl)cc2)nn1-c1c(OS(C)(=O)=O)cnn(C)c1=O` [Compound 39], the “Plant response rating, Spiderwort, T.” value turned out to be 0 in experiment [6] (16 g ai/ha, Preemergence); 0 in experiment [6] (31 g ai/ha, Preemergence); 0 in experiment [6] (62 g ai/ha, Preemergence); 0 in experiment [6] (Postemergence, 8 g ai/ha); 0 in experiment [6] (Postemergence, 16 g ai/ha); 0 in experiment [6] (Postemergence, 31 g ai/ha). In experiment [6] (Postemergence, 62 g ai/ha), the “Plant response rating, Spiderwort, T.” value came out at 0.
On to `CCc1cc(-c2ccc(Cl)cc2)nn1-c1c(OC(=O)C(C)(C)C)cnn(C)c1=O` [Compound 40], for which the “Plant response rating, Spiderwort, T.” value in experiment [6] (16 g ai/ha, Preemergence) is on record as 0; in experiment [6] (31 g ai/ha, Preemergence) it was 0; in experiment [6] (62 g ai/ha, Preemergence) it was 0; in experiment [6] (Postemergence, 8 g ai/ha), 0; in experiment [6] (Postemergence, 16 g ai/ha) it was 0; in experiment [6] (Postemergence, 31 g ai/ha) it was 0. For the same compound, the “Plant response rating, Spiderwort, T.” value in experiment [6] (Postemergence, 62 g ai/ha) was 0.
Consider `CCc1cc(-c2ccc(Cl)cc2)nn1-c1c(OC(=O)OC(C)C)cnn(C)c1=O` [Compound 41], for which the “Plant response rating, Canola” value in the experiment on canola (Brassica rapa) (setting [11]), in the experiment on canola (Brassica rapa) (setting [12]), in the experiment on canola (Brassica rapa) (setting [13]) and in the experiment with canola (Brassica rapa) (setting [14]) was 0 in each case.
`Cc1cc(-c2ccc(Cl)cc2)nn1-c1c(OC(=O)OCC(C)C)cnn(C)c1=O` [Compound 57]: the “Plant response rating, Canola” value in the experiment on canola (Brassica rapa) (setting [7]), with canola (Brassica rapa) (setting [8]), in the experiment with canola (Brassica rapa) (setting [9]), with canola (Brassica rapa) (setting [10]), in the experiment with canola (Brassica rapa) (setting [11]) and in the experiment with canola (Brassica rapa) (setting [14]) was 0 throughout.

(Values after patent US20100267561A1, “HERBICIDAL PYRIDAZINONE DERIVATIVES” (priority 2007, published 2010).)
